# Data from US20220117919A1, “ENHANCED BIOAVAILABILITY OF N-(2,6-BIS(1-METHYLETHYL)PHENYL)-N'-((1-(4-(DIMETHYLAMINO)-PHENYL)CYCLOPENTYL)METHYL)UREA HYDROCHLORIDE” (The Regents of the University of Michigan, priority 2015, published 2022).
# “And” between values parts separate entries of the source, which are not always exact repeats. Equal values may be shown once. Where a name gives a salt, the structure may show the parent alone. Read-outs that look alike come from different tables or passages of the source.
# Assay: Food and acidic beverage effect on bioavailability of ATR-101 tablets, 3-way crossover plasma PK study
# Format: in vivo, human
# Settings: for kel: in h-1; for AUC0-t Ratio C/A: fasting with acidic beverage vs fasting with water; for AUC0-t Ratio B/C: fed with water vs fasting with acidic beverage; for AUC0-t Ratio B/A: fed with water vs fasting with water
# Description: To evaluate the effects of food and of an acidic beverage on bioavailability of ATR-101 tablets prepared according to Example 2 (see Table 2), an open-label, randomized, 3-period, 3-way crossover, 3-sequence study was carried out with fourteen healthy, adult, non-tobacco using male and female (non-childbearing potential only) human subjects.
# Three different treatments A, B, and C were administered as follows:
# Treatment A: 500 mg ATR-101 (1×500 mg tablet) administered with water at Hour 0 on Day 1 following an overnight fast.
# Treatment B: 500 mg ATR-101 (1×500 mg tablet) administered with water at Hour 0, 30 minutes after the start of a high-fat breakfast, on Day 1.
# Treatment C: 500 mg ATR-101 (1×500 mg tablet) administered with Coca-Cola® Classic at Hour 0 on Day 1 following an overnight fast.
# On Day 1 of Period 1, subjects were randomized to one of 3 treatment sequences: ABC, BCA, or CBA. For Treatments A and B, ATR-101 was administered orally with approximately 240 mL of water. For Treatment C, ATR-101 was administered orally with approximately 240 mL of Coca-Cola® Classic. Water (except water provided with dosing for Treatments A and B) was restricted 1 hour prior to and 1 hour after each study drug administration, but was allowed ad libitum at all other times. Other fluids were given as part of the standard meals (including the breakfast administered prior to study drug dosing for Treatment B) and/or snacks, but were restricted at all other times (except for the Coca-Cola® Classic beverage provided with dosing in Treatment C) throughout the confinement period.
# For Treatments A and C, subjects fasted overnight for at least 10 hours prior to study drug administration and continued the fast for at least 4 hours post-dose.
# For Treatment B, subjects were required to fast overnight for at least 10 hours until 30 minutes prior to study drug administration, when they were given breakfast which was entirely consumed within 30 minutes. A representative breakfast includes 2 slices of buttered toast, 2 fried eggs, 2 strips of bacon, 4 oz of hash brown potatoes, and 240 mL of whole milk.
# On Day 1 of each period, a standard lunch and dinner was provided at approximately 4 and 9 hours post-dose, respectively, and a snack was also offered at approximately 12 hours post-dose. On other days when confined in the CRU, standard meals and/or snacks were provided at appropriate times. When confined, subjects were required to fast from all food and drink except water between meals and snacks served at the clinical research unit.
# Each meal and/or snack served at the clinical research unit was standardized and was similar in caloric content and composition (except for the meal served as part of Treatment B) and was taken at approximately the same time in each period.
# For all subjects, blood samples for the determination of ATR-101 plasma concentration were collected at pre-dose and 0.5, 1, 1.5, 2, 2.5, 3, 3.5, 4, 5, 6, 8, 12, 16, 24, 36, and 48 hours post-dose. PK parameters for plasma ATR-101 were calculated as follows: • AUC0-t: The area under the plasma concentration-time curve, from time 0 to the last measurable non-zero concentration, was calculated by the linear trapezoidal method. • AUC0-inf: The area under the plasma concentration-time curve from time 0 extrapolated to infinity. AUC0-inf was calculated as the sum of AUC0-t plus the ratio of the last measurable plasma concentration to the elimination rate constant. • AUC%extrap: Percent of AUC0-inf extrapolated, represented as
# [formula] • Cmax: Maximum observed concentration. • tmax: Time to reach Cmax. If the maximum value occurred at more than one time point, tmax was defined as the first time point with this value. • ke1: Apparent first-order terminal elimination rate constant calculated from a semi-log plot of the plasma concentration versus time curve. […]
# [1] = Treatment C (fasting with acidic beverage), single oral 500 mg, Minimum
# [2] = Treatment C (fasting with acidic beverage, Coca-Cola Classic), single oral 500 mg, individual subject, hydrochloride
# [3] = individual subject, hydrochloride
compound,measurement,setting,value
"CC(C)c1cccc(C(C)C)c1NC(=O)NCC1(c2ccc(N(C)C)cc2)CCCC1 [ATR-101, N-(2,6-bis(1-methylethyl)phenyl)-N′-((1-(4-(dimethylamino)-phenyl)cyclopentyl)methyl)urea hydrochloride]",tmax,[1],1.50 h
same,kel,[1],0.0249
same,AUC0-inf,[2],728 and 3990 and 5760 and 2610 and 5420 and 4530 and 6970 and 2880 and 3670 and 2670 and 6680 and 5020
same,AUC0-t,[2],572 and 5100 and 2510 and 4940 and 4110 and 6430 and 2360 and 3660 and 3400 and 2250 and 6310 and 4300
same,AUC% extrap,[2],21.5% and 4.67% and 11.3% and 3.84% and 8.70% and 9.20% and 7.61% and 18.3% and 7.31% and 15.6% and 5.52% and 14.2%
same,Cmax,[2],19.8 ng/mL and 734 ng/mL and 1030 ng/mL and 438 ng/mL and 948 ng/mL and 645 ng/mL and 952 ng/mL and 461 ng/mL and 602 ng/mL and 525 ng/mL and 1550 ng/mL and 893 ng/mL
same,t1/2,[2],17.5 h and 13.8 h and 8.2 h and 14.0 h and 18.7 h and 20.1 h and 7.9 h and 16.0 h and 26.9 h and 14.2 h and 27.1 h
same,tmax,[2],6.00 h and 3.00 h and 1.50 h and 2.50 h
same,kel,[2],0.0397 and 0.0501 and 0.0380 and 0.0496 and 0.0371 and 0.0345 and 0.0353 and 0.0249 and 0.0433 and 0.0258 and 0.0488 and 0.0256
same,AUC0-inf,"both sexes, human, plasma, po, 500 mg, Treatment A (fasting with water), single oral 500 mg, Geometric Mean, read-out: AUC0-inf",3480 ng·h/mL
same,AUC0-t,"both sexes, human, plasma, po, 500 mg, Treatment A (fasting with water), single oral 500 mg, Geometric Mean, read-out: AUC0-t",2710 ng·h/mL
same,Cmax,"both sexes, human, plasma, po, 500 mg, Treatment A (fasting with water), single oral 500 mg, Geometric Mean, read-out: Cmax",469 ng/mL
same,half-life,"both sexes, human, plasma, po, 500 mg, Treatment A (fasting with water), single oral 500 mg, Mean",1070 min
same,AUC0-inf,"both sexes, human, plasma, po, 500 mg, Treatment A (fasting with water), single oral 500 mg, Mean, read-out: AUC0-inf",3620 ng·h/mL
same,AUC0-t,"both sexes, human, plasma, po, 500 mg, Treatment A (fasting with water), single oral 500 mg, Mean, read-out: AUC0-t",2970 ng·h/mL
same,Cmax,"both sexes, human, plasma, po, 500 mg, Treatment A (fasting with water), single oral 500 mg, Mean, read-out: Cmax",575 ng/mL
same,half-life,"both sexes, human, plasma, po, 500 mg, Treatment A (fasting with water), single oral 500 mg, Median",1090 min
same,AUC0-inf,"both sexes, human, plasma, po, 500 mg, Treatment A (fasting with water), single oral 500 mg, Median, read-out: AUC0-inf",3400 ng·h/mL
same,AUC0-t,"both sexes, human, plasma, po, 500 mg, Treatment A (fasting with water), single oral 500 mg, Median, read-out: AUC0-t",2620 ng·h/mL
same,Cmax,"both sexes, human, plasma, po, 500 mg, Treatment A (fasting with water), single oral 500 mg, Median, read-out: Cmax",542 ng/mL
same,tmax,"both sexes, human, plasma, po, 500 mg, Treatment A (fasting with water), single oral 500 mg, Median, read-out: tmax",2 h
same,AUC0-inf,"both sexes, human, plasma, po, 500 mg, Treatment B (fed with water), single oral 500 mg, Geometric Mean, read-out: AUC0-inf",6740 ng·h/mL
same,AUC0-t,"both sexes, human, plasma, po, 500 mg, Treatment B (fed with water), single oral 500 mg, Geometric Mean, read-out: AUC0-t",6200 ng·h/mL
same,Cmax,"both sexes, human, plasma, po, 500 mg, Treatment B (fed with water), single oral 500 mg, Geometric Mean, read-out: Cmax",1180 ng/mL
same,half-life,"both sexes, human, plasma, po, 500 mg, Treatment B (fed with water), single oral 500 mg, Mean",1220 min
same,AUC0-inf,"both sexes, human, plasma, po, 500 mg, Treatment B (fed with water), single oral 500 mg, Mean, read-out: AUC0-inf",7130 ng·h/mL
same,AUC0-t,"both sexes, human, plasma, po, 500 mg, Treatment B (fed with water), single oral 500 mg, Mean, read-out: AUC0-t",6560 ng·h/mL
same,Cmax,"both sexes, human, plasma, po, 500 mg, Treatment B (fed with water), single oral 500 mg, Mean, read-out: Cmax",1250 ng/mL
same,half-life,"both sexes, human, plasma, po, 500 mg, Treatment B (fed with water), single oral 500 mg, Median",1130 min
same,AUC0-inf,"both sexes, human, plasma, po, 500 mg, Treatment B (fed with water), single oral 500 mg, Median, read-out: AUC0-inf",6810 ng·h/mL
same,AUC0-t,"both sexes, human, plasma, po, 500 mg, Treatment B (fed with water), single oral 500 mg, Median, read-out: AUC0-t",6110 ng·h/mL
same,Cmax,"both sexes, human, plasma, po, 500 mg, Treatment B (fed with water), single oral 500 mg, Median, read-out: Cmax",1150 ng/mL
same,tmax,"both sexes, human, plasma, po, 500 mg, Treatment B (fed with water), single oral 500 mg, Median, read-out: tmax",2.75 h
same,AUC0-inf,"both sexes, human, plasma, po, 500 mg, Treatment C (fasting with acidic beverage), single oral 500 mg, Geometric Mean, read-out: AUC0-inf",3720 ng·h/mL
same,AUC0-t,"both sexes, human, plasma, po, 500 mg, Treatment C (fasting with acidic beverage), single oral 500 mg, Geometric Mean, read-out: AUC0-t",3340 ng·h/mL
same,Cmax,"both sexes, human, plasma, po, 500 mg, Treatment C (fasting with acidic beverage), single oral 500 mg, Geometric Mean, read-out: Cmax",558 ng/mL
same,half-life,"both sexes, human, plasma, po, 500 mg, Treatment C (fasting with acidic beverage), single oral 500 mg, Mean",1170 min
same,AUC0-inf,"both sexes, human, plasma, po, 500 mg, Treatment C (fasting with acidic beverage), single oral 500 mg, Mean, read-out: AUC0-inf",4240 ng·h/mL
same,AUC0-t,"both sexes, human, plasma, po, 500 mg, Treatment C (fasting with acidic beverage), single oral 500 mg, Mean, read-out: AUC0-t",3830 ng·h/mL
same,Cmax,"both sexes, human, plasma, po, 500 mg, Treatment C (fasting with acidic beverage), single oral 500 mg, Mean, read-out: Cmax",728 ng/mL
same,half-life,"both sexes, human, plasma, po, 500 mg, Treatment C (fasting with acidic beverage), single oral 500 mg, Median",1100 min
same,AUC0-inf,"both sexes, human, plasma, po, 500 mg, Treatment C (fasting with acidic beverage), single oral 500 mg, Median, read-out: AUC0-inf",4260 ng·h/mL
same,AUC0-t,"both sexes, human, plasma, po, 500 mg, Treatment C (fasting with acidic beverage), single oral 500 mg, Median, read-out: AUC0-t",3800 ng·h/mL
same,Cmax,"both sexes, human, plasma, po, 500 mg, Treatment C (fasting with acidic beverage), single oral 500 mg, Median, read-out: Cmax",666 ng/mL
same,tmax,"both sexes, human, plasma, po, 500 mg, Treatment C (fasting with acidic beverage), single oral 500 mg, Median, read-out: tmax",2 h
same,AUC0-t Ratio C/A,Geometric Mean,126%
same,AUC0-t Ratio C/A,Maximum,588%
same,AUC0-t Ratio C/A,Mean,160%
same,AUC0-t Ratio C/A,Median,131%
same,AUC0-t Ratio C/A,Minimum,23.3%
same,AUC0-t Ratio C/A,[3],23.3% and 120% and 134% and 101% and 588% and 187% and 132% and 155% and 89.3% and 130% and 143% and 111%
same,increase in systemic exposure,fed state (Treatment B) compared to fasting state with acidic beverage (Treatment C),108%
same,increase in systemic exposure,fed state (Treatment B) compared to fasting state with water (Treatment A),153%
same,AUC0-t Ratio B/C,Geometric Mean,184%
same,AUC0-t Ratio B/C,Maximum,615%
same,AUC0-t Ratio B/C,Mean,208%
same,AUC0-t Ratio B/C,Median,156%
same,AUC0-t Ratio B/C,Minimum,83.2%
same,AUC0-t Ratio B/C,[3],615% and 156% (2×) and 258% and 210% and 83.2% and 168% and 131% and 267% and 148% and 211% and 147% and 153%
same,AUC0-t Ratio B/A,Geometric Mean,233%
same,AUC0-t Ratio B/A,Maximum,490%
same,AUC0-t Ratio B/A,Mean,253%
same,AUC0-t Ratio B/A,Median,211%
same,AUC0-t Ratio B/A,Minimum,132%
same,AUC0-t Ratio B/A,[3],144% and 187% and 346% and 212% and 490% and 313% and 173% and 292% and 415% and 132% and 203% and 211% and 169%
